From patent US12280059B2, “Acyl-CoA synthetase 4 (ACSL4) inhibitory compound” (CONSEJO NACIONAL DE INVESTIGACIONES CIENTÍFICAS Y TÉCNICAS …, priority 2019, dated 2025)

Tests used:
PC-3 cells = experiment: Cell proliferation inhibition in prostate cancer cell line, BrdU incorporation assay; format: cell-based; settings: Homo sapiens, 96 h incubation
Protocol: ACSL4 inhibition was also assessed through proliferation inhibition in the Pc-3 cell line. PC-3 human prostate cancer cell line was generously provided by Dr. Susana Nowicky and validated by ATCC Cell Line Authentication Service as 100% matching to ATCC cell line CRL-1435 (PC-3).
The medium was then changed to serum-free medium. After 24 h, the cells were switched to 10% FBS-supplemented D-MEM medium and incubated with i) ACSL4 inhibitor A, ii) ACSL4 inhibitor B or iii) rosiglitazone for 96 h.

MDA-MB-231 cells [1] = experiment: Cell proliferation inhibition in breast cancer cell line, BrdU incorporation assay; format: cell-based; settings: Homo sapiens, 96 h incubation
Source text: In this experiment, ACSL4 inhibition was studied through proliferation inhibition of MDA-MB-231 cells. Human breast cancer cell line MDA-MB-231 was generously provided by Dr. Vasilios Papadoupoulus (Research Institute of the McGill University Health Centre, Montreal, Canada) and obtained from the Lombardi Comprehensive Cancer Center (Georgetown University Medical Center, Washington D.C. USA), validated by ATCC Cell Line Authentication Service as 100% matching to ATCC cell line HTB-26 (MDA-MB-231).
The medium was then changed to serum-free medium.
After 24 h, the cells were switched to 10% FBS-supplemented D-MEM medium and incubated with i) ACSL4 inhibitor A, ii) ACSL4 inhibitor B or iii) rosiglitazone for 96 h.

MDA-MB-231 cells [2] = experiment: Migration assay (wound healing); format: cell-based, human; settings: for concentration at which differences in wound area were evident: wound healing, 12 h after injury
Protocol: Cellular migration was measured by the wound healing assay. Cells (7×10^5 cells per well) were seeded in six-well plates. Cells were kept in complete (10% FBS) medium. Cell monolayer was wounded with a plastic tip across the monolayer cells. Wound closures were photographed by a phase contrast microscopy (40×) in the time point 4, 8 and 12 h after scraping. The width of the wound was determined with the Image Pro-Plus program.
For the wound healing assay, cells were incubated with either vehicle (control), the compound of the invention (inhibitor A) (50 μM) and Rosiglitazone (200 μM). At the specified time points, the distance between the wound edges was measured using Image-Pro Plus software. Results are shown in FIG. 4A-D. Data represent the mean±SD of three independent experiments.

MA-10 Leydig cells = experiment: Steroidogenesis assay, progesterone production in cAMP-stimulated MA-10 Leydig cells; format: cell-based, mouse
Protocol: (§1) In the present example, ACSL4 inhibitor effects on steroid production were tested by stimulating MA 10 Leydig and Y1 adrenal cells with cAMP (0.5 mM) for 1 hour and assessing progesterone levels. MA-10 mouse Leydig tumor cells were generously provided by Dr. Mario Ascoli (University of Iowa, Iowa City, Iowa) and cultured in Waymouth MB/752 medium supplemented with 15% horse serum and antibiotics at 37° C. and 5% CO2 as previously described. The culture medium was replaced with serum-free Waymouth medium before experiments.

ACSL4 [3] = target: T1, ACSL4 (Mus musculus, UniProt Q9QUJ7); experiment: 3H-arachidonic acid incorporation into MA-10 Leydig cells (ACSL4 activity); format: cell-based; settings: cAMP stimulated
T1 construct: evaluated in MA-10 Leydig cells, in which ACSL4 activity plays a key role in steroids synthesis; endogenous in cells; host or cells: MA-10 mouse Leydig tumor cells
T1 sequence (Q9QUJ7 whole entry): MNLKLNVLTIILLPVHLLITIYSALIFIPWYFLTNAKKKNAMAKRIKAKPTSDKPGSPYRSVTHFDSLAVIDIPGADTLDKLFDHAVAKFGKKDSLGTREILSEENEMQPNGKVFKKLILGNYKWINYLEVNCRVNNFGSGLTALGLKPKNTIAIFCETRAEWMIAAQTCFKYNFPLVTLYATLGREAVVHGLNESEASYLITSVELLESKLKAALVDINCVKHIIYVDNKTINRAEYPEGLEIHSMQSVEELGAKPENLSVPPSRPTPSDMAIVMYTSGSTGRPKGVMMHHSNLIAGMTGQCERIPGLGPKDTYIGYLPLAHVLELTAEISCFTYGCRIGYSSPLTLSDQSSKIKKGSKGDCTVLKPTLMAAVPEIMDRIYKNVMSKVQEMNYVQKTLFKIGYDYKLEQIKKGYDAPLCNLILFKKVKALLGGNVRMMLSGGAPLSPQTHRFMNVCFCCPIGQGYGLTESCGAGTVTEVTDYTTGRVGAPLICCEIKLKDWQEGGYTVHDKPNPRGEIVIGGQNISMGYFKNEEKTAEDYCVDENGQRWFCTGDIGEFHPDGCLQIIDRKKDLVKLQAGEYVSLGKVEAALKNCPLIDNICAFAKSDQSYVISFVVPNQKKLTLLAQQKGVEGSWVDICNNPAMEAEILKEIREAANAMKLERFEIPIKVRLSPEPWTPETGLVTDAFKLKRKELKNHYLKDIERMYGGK
Protocol: The effects of the ACSL4 inhibitor of the invention were evaluated in MA-10 Leydig cells, in which ACSL4 activity plays a key role in steroids synthesis.
(§2) ACSL4 activity was determined by measuring the transformation of arachidonic acid (AA) into enzyme product arachidonoyl-CoA (AA CoA), through ^3H-AA incorporation expressed as CPM/10^6 cells×10^−3 with results showing significant ACSL4 inhibition and a consequent significant reduction in AA CoA levels.
ACSL4 activity was stimulated with cAMP.

Y1 adrenal cells = experiment: Steroidogenesis assay, progesterone production in cAMP-stimulated Y1 adrenal cells; format: cell-based, mouse; settings: cAMP 0.5 mM, 1 hour
Protocol: as §1
Murine Y1 adrenocortical tumor cells were generously provided by Dr B Schimmer (University of Toronto, Toronto, Canada). Methods for the culture of Y1 mouse adrenal tumor cells (American Type Culture Collection, Rockville, MD, USA) have been published elsewhere (Schimmer 1979). Cells were maintained at 37 C in growth medium (HAM F10) containing fetal bovine (2·5%) and horse (12·5%) sera.

ACSL4 [4] = target: T2, ACSL4 (Homo sapiens, UniProt O60488); experiment: 3H-arachidonic acid incorporation into MDA-MB-231 cells (ACSL4 activity); format: cell-based; settings: serum stimulated
T2 construct: evaluated in MDA-MB-231 cells, in which ACSL4 activity plays a key role in tumor biology; endogenous in cells; host or cells: MDA-MB-231
T2 sequence (O60488 whole entry): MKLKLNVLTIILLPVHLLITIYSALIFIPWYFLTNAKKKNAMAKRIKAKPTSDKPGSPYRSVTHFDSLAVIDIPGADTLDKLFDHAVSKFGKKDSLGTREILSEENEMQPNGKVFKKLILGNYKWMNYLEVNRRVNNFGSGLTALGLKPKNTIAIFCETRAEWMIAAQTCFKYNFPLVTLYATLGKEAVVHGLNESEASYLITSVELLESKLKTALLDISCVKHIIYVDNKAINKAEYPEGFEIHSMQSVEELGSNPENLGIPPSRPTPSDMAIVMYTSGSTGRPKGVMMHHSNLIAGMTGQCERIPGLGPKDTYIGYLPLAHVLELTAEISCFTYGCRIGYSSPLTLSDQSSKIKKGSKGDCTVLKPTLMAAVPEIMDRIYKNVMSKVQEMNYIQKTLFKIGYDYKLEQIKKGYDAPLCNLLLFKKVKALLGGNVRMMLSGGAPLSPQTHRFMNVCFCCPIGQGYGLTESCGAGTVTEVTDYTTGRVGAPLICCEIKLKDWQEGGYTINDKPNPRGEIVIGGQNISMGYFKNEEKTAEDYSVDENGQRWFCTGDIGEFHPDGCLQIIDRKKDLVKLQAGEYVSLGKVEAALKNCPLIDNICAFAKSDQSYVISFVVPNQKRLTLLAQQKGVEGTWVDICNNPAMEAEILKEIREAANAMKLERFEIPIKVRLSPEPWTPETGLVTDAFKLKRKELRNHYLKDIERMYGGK
Protocol: The effects of the ACSL4 inhibitor of the invention were evaluated in MDA-MB-231 cells, in which ACSL4 activity plays a key role in tumor biology.
as §2
ACSL4 activity was stimulated with serum in tumoral cells.

MDA-MB231 cells = experiment: Tumor growth in chick embryo chorioallantoic membrane (CAM) assay; format: in vivo; settings: 100 μM, in ovo, Kruskal-Wallis p<0.0001
Protocol: In this experiment, the in vivo CAM assay platform of IPATIMUP was used to test the effect of inhibitor A to inhibit tumor growth in vivo. The CAMP is a preclinical in vivo model for drug screening.
Chicken eggs in the early phase of breeding are between in vitro and in vivo systems and provide a vascular test environment not only to study angiogenesis but also to study tumorigenesis. Since the lymphoid system is not fully developed until late stages of incubation, the chick embryo serves as a naturally immunodeficient host capable of sustaining grafted tissues and cells without species-specific restrictions.
As previously described, breast cancer MDA-MB231 cell line was used as a cell model to assess tumor cell growth. The effects of the compound were compared to those of the vehicle (DMEM).
The test compound, at the 10 μM and 100 μM, were inoculated together with 0.5×10^6 MDA-MB231 cells into a total of 53 eggs (distributed in two independent experiments), at embryonic development day (EDD) 10. The effects of the compound A were compared to those of the vehicle (DMEM).
Xenografted cells/tumors were treated in ovo on EDD12 and the experiment ended at EDD 14. At the endpoint, CAMs were fixed (with paraformaldehyde), excised from the embryo and photographed ex ovo.
The pictures were used to determine the number of neo vessels growing radially towards the inoculation site. […]

Solubility = format: physicochemical; settings: compared with compound B
steroid synthesis = experiment: Steroidogenesis in male mice stimulated with hCG; format: in vivo, BALB/c mice
Protocol: Thirty-day-old male BALB/c mice were treated with inhibitor A (10-100 μM) i.p at a dose of 50 ul/mice. After 3 hours the animal received a single s.c injection of human Chorionic Gonadotrophin (300 U/mice). After 3 hours the animal were sacrificed and assessed for testosterone, pregnenolone and progesterone levels FIG. 13 A, corticosterone FIG. 13 B and steroids in Pc-3 cell FIG. 13 C.

Structure (SMILES)	IC50 (PC-3 cells)	IC50 (MDA-MB-231 cells [1])	concentration at which differences in wound area were evident (MDA-MB-231 cells [2])	inhibition of progesterone synthesis (MA-10 Leydig cells)	release of progesterone (MA-10 Leydig cells; 10 μM, control 3.26 ng/ml)	concentrations for inhibiting ACSL4 activity (3H-AA incorporation) (ACSL4 [3])	minimal concentration significantly inhibiting steroid synthesis (Y1 adrenal cells)	concentrations for inhibiting ACSL4 activity (3H-AA incorporation) (ACSL4 [4])	minimal concentration significantly inhibiting steroid synthesis (MA-10 Leydig cells; cAMP 0.5 mM, 1 hour, progesterone)	tumor growth (tumor area) versus vehicle (MDA-MB231 cells)	solubility (Solubility)	inhibition of cell migration (wound healing) (MDA-MB-231 cells [2]; MDA-MB-231 cells, 50 μM)	minimal concentration significantly inhibiting steroid synthesis (steroid synthesis; i.p. 50 ul/mice, hCG stimulation (Example 12))	dose at which there was already response in inhibiting steroidogenesis (steroid synthesis; in vivo experiment in mice, FIG. 13 A)
CN(CCOc1ccc(CC2SC(=O)NC2=O)cc1)c1ccccn1 (centres unmarked) [Rosiglitazone, reference compound]	100 µM	180 µM	200 µM	–	–	–	–	–	–	–	–	–	–	–
CCC/C=C/C/C=C/C=C/C=N/NN=O [Triacsin C]	–	–	–	failed to inhibit progesterone synthesis	46.5 ng/mL	–	–	–	–	–	–	–	–	–
CC(=O)NC1=Nc2nc3ccccc3n2C(c2cn(-c3ccccc3)nc2-c2ccc(C)o2)N1 (centres unmarked) [inhibitor A, N-(4-(3-(5-methylfuran-2-yl)-1-phenyl-1H-pyrazol-4-yl)-3,4-dihydrobenzo[4,5]imidazo[1,2-a][1,3,5]triazin-2-yl)acetamide]	27 µM	23 µM	50 µM	–	–	lower than those required for rosiglitazone	5 µM	lower than those required for rosiglitazone	5 µM	Significant statistical differences	higher than the solubility of compound B	succeeded in inhibiting the migration	25 µM	10 µM
Cc1ccc(-c2nn(-c3ccccc3)cc2C2NC(N)=Nc3nc4ccccc4n32)o1 (centres unmarked) [inhibitor B, 4-(3-(5-methylfuran-2-yl)-1-phenyl-1H-pyrazol-4-yl)-3,4-dihydrobenzo[4,5]imidazo[1,2-a][1,3,5]triazin-2-amine]	48 µM	45 µM	100 µM	–	–	–	–	–	–	–	–	–	–	–
